Data published in the NIST ThermoML archive (doi:10.1021/je7003758).

Assay: xn = mol fraction of the nth substance listed
Settings: 298.15 K, Liquid

ClCCCCCCCl [1,6-dichlorohexane] + CN1CCCC1=O
mass density [kg/m3]
Settings	x2 = 0.1182	x2 = 0.2016	x2 = 0.3079	x2 = 0.4114	x2 = 0.5049	x2 = 0.6008	x2 = 0.7023	x2 = 0.8009	x2 = 0.8972
100 kPa	1060.7	1058.4	1055.4	1052	1049	1045.6	1041.6	1037.5	1033.1
500 kPa	1060.9	1058.7	1055.6	1052.3	1049.2	1045.8	1041.8	1037.7	1033.4
1000 kPa	1061.3	1059.1	1056	1052.6	1049.5	1046.1	1042.1	1038	1033.6
1500 kPa	1061.6	1059.4	1056.3	1052.9	1049.8	1046.4	1042.4	1038.3	1033.9
2000 kPa	1062	1059.7	1056.6	1053.3	1050.1	1046.7	1042.7	1038.6	1034.2
2500 kPa	1062.3	1060	1056.9	1053.6	1050.5	1047	1043	1038.9	1034.4
3000 kPa	1062.6	1060.4	1057.3	1053.9	1050.8	1047.3	1043.3	1039.1	1034.7
3500 kPa	1063	1060.8	1057.6	1054.3	1051.1	1047.6	1043.6	1039.4	1035
4000 kPa	1063.3	1061.1	1057.9	1054.6	1051.4	1047.9	1043.9	1039.7	1035.3
4500 kPa	1063.7	1061.4	1058.3	1054.9	1051.7	1048.2	1044.2	1040	1035.5
5000 kPa	1064	1061.8	1058.6	1055.2	1052	1048.5	1044.4	1040.3	1035.8
5500 kPa	1064.4	1062.1	1058.9	1055.5	1052.4	1048.9	1044.7	1040.5	1036.1
5900 kPa	–	–	–	–	–	1049.2	–	–	–
6000 kPa	1064.7	1062.4	1059.4	1055.8	1052.7	–	1045	1040.8	1036.4
6500 kPa	1065	1062.8	1059.6	1056.1	1053	1049.4	1045.3	1041.1	1036.6
7000 kPa	1065.4	1063.1	1059.9	1056.5	1053.3	1049.7	1045.6	1041.4	1036.9
7500 kPa	1065.7	1063.5	1060.2	–	1053.6	1050	1045.9	1041.7	1037.2
7600 kPa	–	–	–	1056.7	–	–	–	–	–
8000 kPa	1066.1	1063.7	1060.5	1057.1	1054	1050.3	1046.2	1041.9	1037.4
8500 kPa	1066.5	1064	1060.8	1057.4	1054.2	1050.6	1046.5	1042.2	1037.8
8900 kPa	1066.7	–	–	–	–	–	–	–	–
9000 kPa	–	1064.4	1061.2	1057.7	1054.5	1050.9	1046.8	1042.5	1038
9500 kPa	1067	1064.8	1061.5	1058	1054.9	1051.2	1047.1	1042.8	1038.2
10000 kPa	1067.4	1065.2	1061.9	1058.4	1055.2	1051.6	1047.4	1043.1	1038.6
10500 kPa	1067.8	1065.4	1062.2	1058.7	1055.6	1051.9	1047.7	1043.4	1038.8
11000 kPa	1068.1	1065.8	1062.5	1059	1055.9	1052.2	1048	1043.6	1039.1
11500 kPa	1068.4	1066.1	1062.8	1059.3	1056.2	1052.4	1048.2	1044	1039.3
12000 kPa	1068.8	1066.4	1063.1	1059.6	1056.4	1052.7	1048.5	1044.2	1039.6
12500 kPa	1069.1	1066.7	1063.5	1059.9	1056.7	1053	1048.8	1044.5	1039.8
13000 kPa	1069.4	1067	1063.8	1060.3	1057	1053.3	1049.2	1044.8	1040.1
13400 kPa	–	–	–	–	–	–	1049.5	–	–
13500 kPa	1069.7	1067.4	1064.1	1060.6	1057.3	1053.6	–	1045.1	1040.4
13900 kPa	–	–	–	–	1057.6	–	–	–	–
14000 kPa	1070	1067.6	1064.4	1060.9	–	1053.9	1049.7	1045.3	1040.6
14400 kPa	–	–	–	–	–	–	–	1045.6	–
14500 kPa	1070.4	1068	1064.7	1061.2	1057.9	1054.2	1050	–	1041
15000 kPa	1070.7	1068.3	1065	1061.5	1058.2	1054.5	1050.3	1045.9	1041.2
15400 kPa	–	–	–	1061.8	–	–	–	–	–
15500 kPa	1071	1068.6	1065.4	–	1058.5	1054.8	1050.6	1046.2	1041.4
16000 kPa	1071.4	1069	1065.6	1062	1058.8	1055.1	1050.8	1046.4	1041.7
16500 kPa	1071.7	1069.2	1065.9	1062.4	1059.1	1055.4	1051	1046.6	1041.9
16900 kPa	–	–	1066.2	–	–	–	–	–	–
17000 kPa	1072	1069.6	–	1062.7	1059.4	1055.6	1051.3	1046.9	1042.2
17500 kPa	1072.3	1069.8	1066.5	–	1059.7	1055.9	1051.6	1047.2	1042.5
17600 kPa	–	–	–	1063	–	–	–	–	–
17900 kPa	1072.6	–	–	–	–	1056.2	–	–	–
18000 kPa	–	1070.2	1066.7	1063.3	1059.9	–	1051.8	1047.5	1042.7
18400 kPa	–	–	–	–	–	–	–	1047.6	–
18500 kPa	1072.9	1070.5	1067.1	1063.5	1060.2	1056.5	1052.1	–	1043
19000 kPa	1073.3	1070.8	1067.4	1063.9	1060.6	1056.8	1052.4	1048	1043.2
19400 kPa	–	–	1067.7	1064.1	–	–	–	–	–
19500 kPa	1073.6	1071.1	–	–	1060.9	1057	1052.8	1048.2	1043.5
20000 kPa	1073.9	1071.4	1068.2	–	1061.2	1057.5	1053	1048.7	1043.8
20100 kPa	–	–	–	1064.5	–	–	–	–	–
